How the values were obtained:
GlgXE47A-R49A = assay: Fluorescence polarization binding, GlgXE47A-R49A; parameters: species or system Streptomyces venezuelae
Source text: Fig. 5 Structure of the S. venezuelae GlgX-c-di-GMP complex. a Ribbon diagram of the S. venezuelae GlgX-c-di-GMP complex with one GlgX subunit colored cyan and the other salmon. Shown as sticks are the c-di-GMP molecules bound at each end of the antiparallel dimer. […] There was clear density for each c-di-GMP molecule. b Close up of the GlgX-c-di-GMP binding interaction. Key residues mediating contacts to the c-di-GMP are shown as sticks and labeled. Hydrogen bonds from GlgX residues that specify binding to the guanine are indicated by yellow dashed lines. c Fluorescence polarization (FP) binding isotherm showing interaction of GlgX, GlgXE47A-R49A and GlgXR438A-R579A for F-c-di-GMP in red, green and blue respectively. Also shown is the binding isotherm for GlgX binding to F-c-di-AMP in black. […] The y-axis and x-axis are millipolarization (mP) units and GlgX concentration (μM), respectively. Shown are representative binding curves for each. The experiments were performed in technical triplicates and the error between measurements reported. […]
Thus, we used this F-tagged c-di-GMP in fluorescence polarization (FP) studies to quantify the interaction between GlgX and c-di-GMP. […] To ensure that the presence of the fluorescent tag was not impacting the GlgX interaction with c-di-GMP we used microscale thermophoresis (MST) to quantify c-di-GMP binding to GlgX. […]

His6-GlgXDETR(49-52) = assay: DRaCALA with [32P]-c-di-GMP, RETD49-52 swap mutant; format: binding, Streptomyces venezuelae; settings: His6-GlgXDETR(49-52) mutant
Protocol: For DRaCALA assays, purified His6-GlgX (15 μg) was mixed with 0.5 μl undiluted [^32P]-c-di-GMP (42 nM) (Hartmann Analytic GmbH, Braunschweig) in binding buffer (25 mM Tris pH 8; 150 mM NaCl; 2.5% (v/v) glycerol; 5 mM MgCl2) and the reaction was incubated at rt for 5 min. For competition assays, 100 μM nonlabeled nucleotides were added to the samples and incubated at rt for 5 min prior to the addition of [^32P]-c-di-GMP. Reactions (10 μl) were spotted on the same nitrocellulose membrane (Roth), air dried for 10 min and analyzed via phosphorimaging.
217 Supplementary Fig. 5: NanoDSF assays with mutagenized His6-GlgX variants. (a) Swap of the
219 This was confirmed by DRaCALA, right. For DRaCALA assays, 15 µg of purified E. coli His6-GlgX
220 or His6-Vnz25270, respectively, were mixed with 0.5 µl of [32P]-c-di-GMP (Hartmann Analytic
221 GmbH, Braunschweig) in binding buffer (25 mM Tris pH 8.0, 150 mM NaCl, 2.5% (v/v) glycerol
222 and 5 mM MgCl2). 10 µl of the reactions were spotted on the same nitrocellulose membrane (Roth),
223 air dried for 10 min and analyzed by phosphorimaging. (b) Changing the RLVD motif (amino acids
(1 picture or pasted object on this page, not shown here)

`Nc1nc2c(ncn2[C@@H]2O[C@@H]3CO[P@](=O)(O)O[C@H]4[C@@H](O)[C@H](n5cnc6c(=O)[nH]c(N)nc65)O[C@@H]4CO[P@](=O)(O)O[C@H]3[C@H]2O)c(=O)[nH]1` [c-di-GMP, bis-(3′−5′)-cyclic diguanosine monophosphate] was tested, and the “binding to mutant in FP” value (GlgXE47A-R49A) was “weak, nonsaturable binding” and the “binding of c-di-GMP in DRaCALA” value (His6-GlgXDETR(49-52)) was “does not bind c-di-GMP”.
